Assay results published in patent US4880007A, “Contrast agent for NMR scanning” (Amersham International PLC, priority 1985, dated 1989).

Legend:
[1] = Binding of ligands to hydroxy apatite, ^31 P NMR study
Method: (§1) 1 ml of hydroxy apatite solution 250 mg/ml in water was used for all the binding assays to described.
The solid from 1 ml of hydroxy apatite solution was isolated by centrifugation and the supernatant removed. 0.41 ml of a 0.1M solution of ligand at pH 7.5±0.1 were than added and the solid resuspended. The solid was once more spun down and the supernatant analysed by ^31 P NMR. This enabled the amount of bound phosphonate to be analysed.

[2] = Binding of chromium complexes to hydroxy apatite, by T1 relaxation measurement; settings: 0.4 ml of 50 mM metal complex; HAP 250 mg/ml
Method: as §1
The procedure above was followed but this time 0.4 ml of 50 mM metal complex solution was added and the solid resuspended. The supernatant was analysed by T1 using T1 relaxation measurements and the amount bound to hydroxy apatite calculated.

[3] = ^153 Gd biodistribution, IV study in rats; type: in vivo, male rats; settings: for effect of added Ca^2+ or dimethylglucamine on bone uptake: Ca^2+ and dimethylglucamine added separately to aqueous solutions; for Bladder & Urine / Blood / Bone / Carcass / Injection Site / Kidneys / Liver & Spleen / Lung / Muscle / Ratio Bone/Blood / Ratio Bone/Liver & Spleen / Ratio Bone/Muscle / Stomach & Gut / usefulness as bone scanning / bone-seeking agent: rat, IV, two hours post injection
From the text: This example uses ^153 Gd to compare the biodistribution properties of various complexes in rats.
Using ^153 Gd, a comparison was made of certain properties of aqueous "solutions" of
The biodistribution data there reported were obtained by means of an IV study in male rats which were sacrified two hours post injection. % activity per organ is given, together with ratios of bone to organ.
It is known that Ca^2+ can bind to di- and poly-phosphonates, and that this is one reason why these materials are toxic. It is also known that dimethylglucamine can be used to solubilize complexes of this kind.

[4] = Solubility / precipitation of Gd complexes; type: physicochemical
Method: Equal volumes of 1 mM methylene diphosphonic acid and 0.5 mM Gd^3+ were used to prepare a complex designated Gd.MDP.
Equal volumes of 10 mM ethane-1-hydroxy-1,1-diphosphonic acid and 5 mM Gd^3+ were used to prepare a complex designated Gd.EHDP.

[5] = ligand 0.1M, 0.41 ml, pH 7.5±0.1, HAP 250 mg/ml, ^31 P NMR

O=P(O)(O)CN(CCO)CP(=O)(O)O [AEDMP, Amino ethanol dimethylene phosphonate]
% Bound to HAP [1, 5]: 50.9%

O=C(O)CN(CP(=O)(O)O)CP(=O)(O)O.O=C(O)CN(CP(=O)(O)O)CP(=O)(O)O.[Cr] [Cr(GDMP)2]
% Bound [2]: 80%

O=C(O)CN(CP(=O)(O)O)CP(=O)(O)O [GDMP, Glycine dimethylene phosphonate]
% Bound to HAP ([1]; pH 7.5): 88.2%

O=C(O)CCCN(CP(=O)(O)O)CP(=O)(O)O [GABADMP, Gamma amino butyric acid dimethylene phosphonate]
% Bound to HAP [1, 5]: 77.8%

O=P(O)(O)CN(Cc1cccc(CN(CP(=O)(O)O)CP(=O)(O)O)c1)CP(=O)(O)O.[Cr] [CrMXDTMP]
% Bound [2]: 96%

O=P(O)(O)CN(CCN(CP(=O)(O)O)CP(=O)(O)O)CP(=O)(O)O.[Gd] [Gd.EDTMP]
effect of added Ca^2+ or dimethylglucamine on bone uptake [3]: neither addition had a significant effect
Bladder & Urine [3]: 45.8 % activity per organ
Blood [3]: 0.6 % activity per organ
Bone [3]: 45.2 % activity per organ
Carcass [3]: 3.5 % activity per organ
Injection Site [3]: 2.1 % activity per organ
Kidneys [3]: 0.4 % activity per organ
Liver & Spleen [3]: 1.4 % activity per organ
Lung [3]: 0.1 % activity per organ
Muscle [3]: 1.1 % activity per organ
Ratio Bone/Blood [3]: 173.0
Ratio Bone/Liver & Spleen [3]: 35.2
Ratio Bone/Muscle [3]: 491.2
Stomach & Gut [3]: 1.9 % activity per organ
usefulness as bone scanning / bone-seeking agent [3]: good bone-seeking agent

O=P(O)(O)CP(=O)(O)O.[Gd] [Gd.MDP]
Bladder & Urine [3]: 1.0 % activity per organ
Blood [3]: 0.1 % activity per organ
Bone [3]: 3.1 % activity per organ
Carcass [3]: 0.7 % activity per organ
Injection Site [3]: 0.5 % activity per organ
Kidneys [3]: 0.3 % activity per organ
Liver & Spleen [3]: 93.9 % activity per organ
Lung [3]: 0.4 % activity per organ
Muscle [3]: 0.3 % activity per organ
Ratio Bone/Blood [3]: 33.2
Ratio Bone/Liver & Spleen [3]: 0.0
Ratio Bone/Muscle [3]: 80
Stomach & Gut [3]: 0.0 % activity per organ
usefulness as bone scanning / bone-seeking agent [3]: not useful as bone scanning agents
solubility ([4]; around physiological pH's): poor solubility properties

CC(O)(P(=O)(O)O)P(=O)(O)O.[Gd] [Gd.EHDP]
effect of added Ca^2+ or dimethylglucamine on bone uptake [3]: neither addition had a significant effect
Bladder & Urine [3]: 24.0 % activity per organ
Blood [3]: 21.45 % activity per organ
Bone [3]: 22.64 % activity per organ
Carcass [3]: 0.01 % activity per organ
Injection Site [3]: 2.91 % activity per organ
Kidneys [3]: 1.05 % activity per organ
Liver & Spleen [3]: 11.29 % activity per organ
Lung [3]: 1.55 % activity per organ
Muscle [3]: 13.8 % activity per organ
Ratio Bone/Blood [3]: 1.24
Ratio Bone/Liver & Spleen [3]: 2.04
Ratio Bone/Muscle [3]: 14.07
Stomach & Gut [3]: 4.21 % activity per organ
usefulness as bone scanning / bone-seeking agent [3]: not useful as bone scanning agents
pH needed to avoid precipitation ([4]; equal volumes 10 mM ligand and 5 mM Gd^3+): above 7

O=C(O)CCCCCN(CP(=O)(O)O)CP(=O)(O)O [AHADMP, 6-amino hexanoic acid dimethylene phosphonate]
% Bound to HAP [1, 5]: 89.7%

O=P(O)(O)CN(Cc1ccc(CN(CP(=O)(O)O)CP(=O)(O)O)cc1)CP(=O)(O)O [PXDTMP, Para-xylene diamine tetramethylene phosphonate]
% Bound to HAP [1, 5]: 88.0%

O=C(O)CCCCCN(CP(=O)(O)O)CP(=O)(O)O.O=C(O)CCCCCN(CP(=O)(O)O)CP(=O)(O)O.[Cr] [Cr(AHADMP)2]
% Bound [2]: 96%

O=C(O)CCCN(CP(=O)(O)O)CP(=O)(O)O.O=C(O)CCCN(CP(=O)(O)O)CP(=O)(O)O.[Cr] [Cr(GABADMP)2]
% Bound [2]: 90%

[153Gd+3].[Cl-].[Cl-].[Cl-] [^153 Gd.Cl3]
Bladder & Urine [3]: 12.5 % activity per organ
Blood [3]: 3.7 % activity per organ
Bone [3]: 38.6 % activity per organ
Carcass [3]: 1.8 % activity per organ
Injection Site [3]: 3.4 % activity per organ
Kidneys [3]: 2.5 % activity per organ
Liver & Spleen [3]: 32.5 % activity per organ
Lung [3]: 0.6 % activity per organ
Muscle [3]: 4.0 % activity per organ
Ratio Bone/Blood [3]: 12.2
Ratio Bone/Liver & Spleen [3]: 1.1
Ratio Bone/Muscle [3]: 83
Stomach & Gut [3]: 3.9 % activity per organ

O=P(O)(O)CN(CCO)CP(=O)(O)O.O=P(O)(O)CN(CCO)CP(=O)(O)O.[Cr] [Cr(AEDMP)2]
% Bound [2]: 96%

O=P(O)(O)CN(Cc1cccc(CN(CP(=O)(O)O)CP(=O)(O)O)c1)CP(=O)(O)O [MXDTMP, Meta-xylene diamine tetramethylene phosphonate]
% Bound to HAP [1, 5]: 84.1%
